The values that follow come from US20130280259A1, “USE OF ANTIBODIES AGAINST NK1, NK2 AND/OR NK3 RECEPTORS IN CANCER TREATMENT” (SERVICIO ANDALUZ DE SALUD, priority 2010, published 2013).

The subject of assay [1] is primary human fibroblasts (PHF). As to the kind of experiment: Immunohistochemistry of tumour microenvironment markers in primary human fibroblasts. The format is cell-based. On the procedure:
A sample of each of the cultures of the cell lines was centrifuged (5 minutes at 1,500 rpm) and the pellet obtained was dehydrated by treatment at growing concentrations of ethanol and finally in xylol. Then these dehydrated samples were included in paraffin creating a block of cells. These paraffin blocks were cut in a microtome at a thickness of 5 micra and deparaffinised by sinking in xylol, to be subsequently hydrated through a number of solutions containing decreasing concentrations of ethanol and be finally sank in water. Then, these samples were subject to treatment in a pressure cooker in citrate buffer 10× at pH 6.0, to obtain a higher exposure of antigens. Subsequently, the samples were cooled at room temperature for 10 minutes. The endogenous peroxidase activity was blocked with 3% hydrogen peroxide for 30 minutes at room temperature. After washing the samples with 0.05 M of Tris buffer, they were incubated with swine non-immune serum at 10% for 30 minutes at room temperature. […]
PHF were obtained and purified from samples obtained from the skin dermis as described in De Bari et al. (De Bari et al., 2001). In brief, small pieces of skin dermis were digested in a hyaluronidase solution (Sigma-Aldrich, St. Louis, Mo., US) at a concentration of 1 mg/mL for 15 minutes at 37° C. and subsequently treated with 6 mg/mL of type IV collagenase (Invitrogen) for 2 hours at 37° C. Then the cells were washed, resuspended in DMEM culture medium with a high concentration of glucose (Dulbecco's Modified Eagle's Medium, Invitrogen) supplemented with 1% of antibiotics-antimicotics (Invitrogen) and with 1% of sodium pyruvate (Invitrogen), and sown in 6-well culture plaques at a concentration of 10,000 cells per square centimetre. When the cells reached confluence, the adherent cells were separated using 0.5% sterile trypsin (Invitrogen) and were used between runs 3 and 9. For stimulation of substance P and exposure to anti-NK1, anti-NK2 and anti-NK3 antibodies, PHF were sown in 24-well plaques at a concentration of 25,000 cells per well.
For the purpose of analysing the expression of these cell markers in PHF cultures in the presence of the NK1, NK2 and NK3 receptor agonist and in the presence of anti-NK1, NK2 or NK3 antibodies, these cells were cultured in the presence of substance P (NK1, NK2 and NK3 receptor agonist) at a concentration of 1 μM (product no. S6883; Sigma-Aldrich). In other wells and simultaneously these cells were cultured with substance P at the same concentration and simultaneously together with anti-NK1, anti-NK2 or anti-NK3 antibodies (Sigma-Aldrich) at a 1/100 concentration. After 48 hours of culture, the cells were recollected and cell blocks were built for immunohistochemistry assays, as explained in example 1. In the immunohistochemistry assays, the expression of the following markers was assayed: TGF-alpha (SAB4502953), TGF-beta 1 (SAB4502954), TGF-beta 2 (SAB4502956), TGF-beta 3 (SAB4502957), SPARC(HPA002989) MMP-3 (HPA007875); MMP-7 (SAB4501894), MMP-9 (SAB4501896), MMP-11 (SAB4501898), MMP-13 (SAB4501900) and MMP-14 (SAB4501901), by specific antibodies against them. For performing these immunohistochemistry assays, all antibodies were mouse polyclonal antibodies obtained from Sigma Aldrich, used at a 1/1000 concentration. The immunohistochemistry techniques were performed as described in Example 1. The results are summarised in Table 2, that gives the type of marker and the mean percentage of cells with immunostaining for this marker.
To assess immunostaining, six serial sections were made of each block placed over slides for performing the immunohistochemistry technique for each marker. Therefore, the immunohistochemical assay was performed six times for each marker in each case. In each of the six sections, cell count was performed in 20 fields of high magnification (400×) using a microscope of Olympus brand (model CX31). […]

In assay [2] the test system is human polymorphonuclear blood cells. As to the kind of experiment: Immunohistochemistry of TGF-beta and NF-kB in polymorphonuclear blood cells. The conditions noted are these: incubated with PHF; Substance P (1 μM) alone; 48 hours. The format is cell-based. The source says: (§1) Heparinised blood from healthy donors was centrifuged, separating the different components thereof. Red blood cells remain in the bottom of the tube. Above them, there is a small whitish layer formed by white blood cells and above, in the upper part of the tube, blood plasma. The white blood cell layer was distributed in a culture plate of 24 wells, adding to each of them the same concentration of blood plasma supplemented with 1% of antibiotics-antimicotics (Invitrogen). About 1000 cells (PHF) from the skin dermis, obtained as described above, were added to each well.
(§2) To assess immunostaining, six serial sections were made of each block placed over slides for performing the immunohistochemistry technique for each marker. Therefore, the immunohistochemical assay was performed six times for each marker in each case. In each of the six sections, cell count was performed in 20 fields of high magnification (400×) using a microscope of Olympus brand (model CX31). In each field, the total cell number and the number of cells with immunostaining were counted, subsequently measuring the percentage of cells with this immunostaining. […]
(§3) The modification of the peritumoural microenvironment by treatment with anti-NK1, NK2 and/or NK3 antibodies has also been analysed determining the involvement of mononuclear and polymorphonuclear blood cells in this tumoural microenvironment. […]

In assay [3] the test system is human mononuclear blood cells. Put plainly: Immunohistochemistry of TGF-beta and NF-kB in mononuclear blood cells. The format is cell-based. The note with it: incubated with PHF; Substance P (1 μM) alone; 48 hours.
Excerpt: as §1, §2, §3

Assay [4] relates to advanced pancreatic cancer, advanced gastric cancer, glioblastoma, breast cancer. The note with it: breast cancer after first-line chemotherapy (Procc ASCO 1999-2002); cited from earlier work.
Where [5] appears, read: PHF, Substance P (1 μM) alone, 48 hours.

Turning to Substance P, the “Immunostaining for the markers tested (TGF-alpha, TGF-beta 1-3, SPARC, MMPs)” value in assay [1] (PHF cell cultures treated only with substance P) is given as “presence of all markers tested”. Moreover, in assay [1] (setting [5]), the “Percentage of cells with expression for MMP-3” value was 33.9%, the “Percentage of cells with expression for MMP-7” value was found to be 46.2%, the “Percentage of cells with expression for MMP-9” value came out at 35.5% and the “Percentage of cells with expression for MMP-11” value was 7.8%. In assay [1] (setting [5]), the “Percentage of cells with expression for MMP-13” value amounted to 17.1%, the “Percentage of cells with expression for MMP-14” value was determined as 47.3%, the “Percentage of cells with expression for SPARC” value is 16% and the “Percentage of cells with expression for TGF-alpha” value was 16.5%. Besides, in assay [1] (setting [5]), the “Percentage of cells with expression for TGF-beta 1” value was found to be 18.4%, the “Percentage of cells with expression for TGF-beta 2” value worked out at 24.6% and the “Percentage of cells with expression for TGF-beta 3” value amounted to 23.1%. For the same compound, in assay [2], the “Percentage of polymorphonuclear cells with expression for NF-kB” value amounted to 17.5% and the “Percentage of polymorphonuclear cells with expression for TGF-beta” value turned out to be 36.8%. In addition, in assay [3], the “Percentage of mononuclear cells with expression for NF-kB” value turned out to be 25.7% and the “Percentage of mononuclear cells with expression for TGF-beta” value is 16.4%.

For `CNC(=O)[C@@H](NC(=O)[C@H](CC(C)C)[C@H](O)C(=O)NO)C(C)(C)C` [Marimastat], the “Efficacy for the treatment of cancer” value in assay [4] is “effective”.
